Patent publication US20240409536A1, “COMPOUNDS AND METHODS FOR MODULATING SPLICING” (REMIX THERAPEUTICS INC., priority 2021, published 2024)
Where a name gives a salt, the structure may show the parent alone. Blank lines part the entries; values can stand above or below the molecule they belong to.

Experiments:
[1] = tested on: MYB mRNA; assay: Splicing RT-qPCR assay, MYB canonical (CJ) and alternative (AJ) junction mRNA; assay type: cell-based; settings: Homo sapiens, A673 or K562 cells, 24 hours; for IC50: decrease in canonical junction mRNA; for AC50: increase in alternative junction mRNA
How it was run: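 A673 or K562 cells were treated 24 h at 37 °C with compounds in an 11-point 3-fold dilution series (top final 10 uM, DMSO ≤0.25%). Lysates were analysed by one-step RT-qPCR for canonical (CJ) and alternative-exon (AJ) junction isoforms, normalized to GAPDH, GUSB or PPIA.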

[2] = tested on: HiBiT-tagged HTT protein; assay: HiBiT protein abundance assay, HTT (K562 HiBiT knock-in cells); assay type: cell-based, human; settings: 24 hours
How it was run: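 K562 cells with endogenous HiBiT knock-in tag, 10-point 3-fold dilutions (top 10 μM final, ≤0.25% DMSO), 24 h at 37 °C. Lytic Nano-Glo HiBiT luminescence, normalized to DMSO and unmodified K562 baselines; IC50 is concentration giving 50% protein abundance from four-parameter fit.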

SMILES: Cc1cc2c(N3CCNCC3)ccc(C(=O)Nc3cc(F)c4nc(C)cn4c3)c2nn1 [Compound 159]
IC50 [1]: < 100 nM
AC50 [1]: < 100 nM
IC50 [2]: 100 to 1000 nM

SMILES: Cc1cn2cc(NC(=O)c3ccc(N4CCNCC4)c4ccnnc34)nc(C)c2n1 [Compound 164, N-{2,8-dimethylimidazo[1,2-a]pyrazin-6-yl}-5-(piperazin-1-yl)cinnoline-8-carboxamide 2,2,2-trifluoroacetate]
IC50 [1]: 100 to 1000 nM
AC50 [1]: 100 to 1000 nM
IC50 [2]: 1000 to 10000 nM

SMILES: Cc1cn2cc(NC(=O)c3ccc(N4CCNCC4)c4ccnnc34)cc(C#N)c2n1 [Compound 167, N-{8-cyano-2-methylimidazo[1,2-a]pyridin-6-yl}-5-(piperazin-1-yl)cinnoline-8-carboxamide trifluoroacetic acid salt]
IC50 [1]: 100 to 1000 nM
AC50 [1]: 100 to 1000 nM
IC50 [2]: 1000 to 10000 nM

SMILES: Cc1cn2cc(NC(=O)c3ccc(N4CCN(C)[C@H](C)C4)c4ccnnc34)cc(F)c2n1 [Compound 149]
IC50 [1]: < 100 nM
AC50 [1]: 100 to 1000 nM
IC50 [2]: 1000 to 10000 nM

SMILES: Cc1cn2cc(NC(=O)c3ccc(N4C[C@H]5C[C@@H]4C5N(C)C)c4ccnnc34)cc(F)c2n1 (stereo partly drawn) [Compound 155]
IC50 [1]: 1000 to 10000 nM
AC50 [1]: 1000 to 10000 nM
IC50 [2]: > 10000 nM

SMILES: O=C(Nc1cn[nH]c1)c1ccc(N2CCNCC2)c2ccnnc12 [Compound 126]
IC50 [1]: > 10000 nM
AC50 [1]: > 10000 nM
IC50 [2]: > 10000 nM

SMILES: CCN1CCC(c2ccc(C(=O)Nc3cc(F)c4nc(C)cn4c3)c3nnccc23)CC1 [Compound 141]
IC50 [1]: 100 to 1000 nM
AC50 [1]: 100 to 1000 nM
IC50 [2]: 1000 to 10000 nM

SMILES: Cc1cn2cc(NC(=O)c3ccc(N4CC5(CNC5)C4)c4ccnnc34)cc(F)c2n1 [Compound 131]
IC50 [1]: 100 to 1000 nM
AC50 [1]: 100 to 1000 nM
IC50 [2]: 100 to 1000 nM

SMILES: Cc1cn2cc(NC(=O)c3ccc(N4C[C@H]5CC[C@@H](C4)N5)c4ccnnc34)cc(F)c2n1 [Compound 108]
IC50 [1]: 100 to 1000 nM
AC50 [1]: 100 to 1000 nM
IC50 [2]: 1000 to 10000 nM

SMILES: CC[C@H]1CN(c2ccc(C(=O)Nc3cc(F)c4nc(C)cn4c3)c3nnccc23)CCN1 [Compound 152]
IC50 [1]: 100 to 1000 nM
AC50 [1]: 100 to 1000 nM
IC50 [2]: 1000 to 10000 nM

SMILES: Cc1cn2cc(NC(=O)c3ccc(N4C[C@@H](C)N[C@@H](C)C4)c4ccnnc34)cc(F)c2n1 [Compound 161, 5-(3,5-dimethylpiperazin-1-yl)-N-{8-fluoro-2-methylimidazo[1,2-a]pyridin-6-yl}cinnoline-8-carboxamide 2,2,2-trifluoroacetate]
IC50 [1]: < 100 nM
AC50 [1]: < 100 nM
IC50 [2]: 1000 to 10000 nM

SMILES: CCC1CN(c2ccc(C(=O)Nc3cc(F)c4nc(C)cn4c3)c3nnccc23)CCN1 (stereo not drawn) [Compound 130]
IC50 [1]: < 100 nM
AC50 [1]: 100 to 1000 nM
IC50 [2]: 1000 to 10000 nM

SMILES: Cc1cn2cc(NC(=O)c3ccc(N4CCNC5(CC5)C4)c4ccnnc34)cc(F)c2n1 [Compound 105]
IC50 [1]: 100 to 1000 nM
AC50 [1]: 100 to 1000 nM
IC50 [2]: 1000 to 10000 nM

SMILES: Cc1cn2cc(NC(=O)c3ccc(N4CCN(C)[C@@H](C)C4)c4ccnnc34)cc(F)c2n1 [Compound 150]
IC50 [1]: 100 to 1000 nM
AC50 [1]: 100 to 1000 nM
IC50 [2]: 1000 to 10000 nM

SMILES: Cc1cn2cc(NC(=O)c3ccc(N(C)[C@@H]4C[C@H]5CC[C@@H](C4)N5)c4ccnnc34)cc(F)c2n1 [Compound 156]
IC50 [1]: 1000 to 10000 nM
AC50 [1]: 1000 to 10000 nM
IC50 [2]: > 10000 nM

SMILES: Cc1cn2cc(NC(=O)c3ccc(N4CCN(C)CC4)c4ccnnc34)cc(F)c2n1 [Compound 127]
IC50 [1]: 100 to 1000 nM
AC50 [1]: 1000 to 10000 nM
IC50 [2]: 1000 to 10000 nM

Second part, led by results:

IC50 [1]: 1000 to 10000 nM
IC50 [2]: > 10000 nM
SMILES: Cc1cn2cc(NC(=O)c3ccc(N4CCN(CCF)C5(CC5)C4)c4nccnc34)cc(F)c2n1 [Compound 370]
AC50 [1]: > 10000 nM

IC50 [1]: < 100 nM
IC50 [2]: 1000 to 10000 nM
SMILES: Cc1cn2cc(NC(=O)c3ccc(N4CCN[C@@H](C)C4)c4nccnc34)cc(F)c2n1 [Compound 187, N-{8-fluoro-2-methylimidazo[1,2-a]pyridin-6-yl}-8-(3-methylpiperazin-1-yl) quinoxaline-5-carboxamide]
AC50 [1]: < 100 nM

IC50 [1]: 100 to 1000 nM
IC50 [2]: 1000 to 10000 nM
SMILES: CNC1CCN(c2ccc(C(=O)Nc3cc(F)c4nc(C)cn4c3)c3nccnc23)C1 (stereo not drawn) [Compound 190, N-{8-fluoro-2-methylimidazo[1,2-a]pyridin-6-yl}-8-[3-(methylamino)pyrrolidin-1-yl]quinoxaline-5-carboxamide]
AC50 [1]: < 100 nM

IC50 [1]: < 100 nM
IC50 [2]: 1000 to 10000 nM
SMILES: Cc1cnc2c(C(=O)Nc3cc(F)c4nc(C)cn4c3)ccc(N3CCC(N(C)C)CC3)c2n1 [Compound 208, 8-[4-(dimethylamino)piperidin-1-yl]-N-{8-fluoro-2-methylimidazo[1,2-a]pyridin-6-yl}-2-methylquinoxaline-5-carboxamide; bis(trifluoroacetic acid)]
AC50 [1]: < 100 nM

IC50 [1]: 100 to 1000 nM
IC50 [2]: 100 to 1000 nM
SMILES: Cc1cn2cc(NC(=O)c3ccc(C4CCNCC4)c4nccnc34)cc(F)c2n1 [Compound 371]
AC50 [1]: < 100 nM

IC50 [1]: 100 to 1000 nM
IC50 [2]: 100 to 1000 nM
SMILES: COc1cnc2c(N3CCC(N(C)C)CC3)ccc(C(=O)Nc3cc(F)c4nc(C)cn4c3)c2n1 [Compound 206, 8-[4-(dimethylamino)piperidin-1-yl]-N-{8-fluoro-2-methylimidazo[1,2-a]pyridin-6-yl}-3-methoxyquinoxaline-5-carboxamide; trifluoroacetic acid]
AC50 [1]: 100 to 1000 nM

IC50 [1]: < 100 nM
IC50 [2]: 1000 to 10000 nM
SMILES: COc1nc(NC(=O)c2ccc(N3CCNCC3)c3ccnnc23)cn2cc(C)nc12 [Compound 179, N-{8-methoxy-2-methylimidazo[1,2-a]pyrazin-6-yl}-5-(piperazin-1-yl)cinnoline-8-carboxamide]
AC50 [1]: < 100 nM

IC50 [1]: 100 to 1000 nM
IC50 [2]: 1000 to 10000 nM
SMILES: CN[C@@H]1CCN(c2ccc(C(=O)Nc3cc(F)c4nc(C)cn4c3)c3nccnc23)C1 (single isomer, unassigned) [Compound 193, N-{8-fluoro-2-methylimidazo[1,2-a]pyridin-6-yl}-8-[3-(methylamino)pyrrolidin-1-yl]quinoxaline-5-carboxamide]
AC50 [1]: 100 to 1000 nM

IC50 [1]: < 100 nM
IC50 [2]: 1000 to 10000 nM
SMILES: CN[C@H]1CCN(c2ccc(C(=O)Nc3cc(F)c4nc(C)cn4c3)c3nccnc23)C1 (single isomer, unassigned) [Compound 194, N-{8-fluoro-2-methylimidazo[1,2-a]pyridin-6-yl}-8-[3-(methylamino)pyrrolidin-1-yl]quinoxaline-5-carboxamide]
AC50 [1]: 100 to 1000 nM

IC50 [1]: < 100 nM
IC50 [2]: < 100 nM
SMILES: Cc1cnc2c(N3CCC(N(C)C)CC3)ccc(C(=O)Nc3cc(F)c4nc(C)cn4c3)c2n1 [Compound 200, 8-[4-(dimethylamino)piperidin-1-yl]-N-{8-fluoro-2-methylimidazo[1,2-a]pyridin-6-yl}-3-methylquinoxaline-5-carboxamide]
AC50 [1]: < 100 nM

IC50 [1]: < 100 nM
IC50 [2]: 100 to 1000 nM
SMILES: COc1cnc2c(N3CCNCC3)ccc(C(=O)Nc3cc(F)c4nc(C)cn4c3)c2n1 [Compound 207, N-{8-fluoro-2-methylimidazo[1,2-a]pyridin-6-yl}-3-methoxy-8-(piperazin-1-yl)quinoxaline-5-carboxamide; bis(trifluoroacetic acid)]
AC50 [1]: < 100 nM

IC50 [1]: 100 to 1000 nM
IC50 [2]: 1000 to 10000 nM
SMILES: Cc1cn2cc(NC(=O)c3ccc(N4CCNC5(CCOC5)C4)c4nccnc34)cc(F)c2n1 (stereo not drawn) [Compound 373]
AC50 [1]: 1000 to 10000 nM

IC50 [1]: < 100 nM
IC50 [2]: > 10000 nM
SMILES: COCCOc1ccc2c(N3CCNCC3)ccc(C(=O)Nc3cc(F)c4nc(C)cn4c3)c2n1 [Compound 173, N-{8-fluoro-2-methylimidazo[1,2-a]pyridin-6-yl}-2-(2-methoxyethoxy)-5-(piperazin-1-yl)quinoline-8-carboxamide]
AC50 [1]: < 100 nM

IC50 [1]: < 100 nM
IC50 [2]: 1000 to 10000 nM
SMILES: Cc1cn2cc(NC(=O)c3ccc(N4CC(C)(C)NC(C)(C)C4)c4nccnc34)cc(F)c2n1 [Compound 219, N-{8-fluoro-2-methylimidazo[1,2-a]pyridin-6-yl}-8-(3,3,5,5-tetramethylpiperazin-1-yl)quinoxaline-5-carboxamide]
AC50 [1]: < 100 nM

IC50 [1]: < 100 nM
IC50 [2]: > 10000 nM
SMILES: COc1cnc2c(C(=O)Nc3cc(F)c4nc(C)cn4c3)ccc(N3CCNCC3)c2n1 [Compound 225, N-{8-fluoro-2-methylimidazo[1,2-a]pyridin-6-yl}-2-methoxy-8-(piperazin-1-yl)quinoxaline-5-carboxamide]
AC50 [1]: 100 to 1000 nM

IC50 [1]: 1000 to 10000 nM
IC50 [2]: 1000 to 10000 nM
SMILES: CCNC1CCN(c2ccc(C(=O)Nc3cc(F)c4nc(C)sc4c3)c3nnccc23)CC1 [Compound 221, 5-[4-(ethylamino)piperidin-1-yl]-N-(4-fluoro-2-methyl-1,3-benzothiazol-6-yl)cinnoline-8-carboxamide]
AC50 [1]: 1000 to 10000 nM

IC50 [1]: < 100 nM
IC50 [2]: 1000 to 10000 nM
SMILES: Cc1ccc2c(N3C[C@@H](C)N[C@@H](C)C3)ccc(C(=O)Nc3cc(F)c4nc(C)cn4c3)c2n1 [Compound 214, 5-[(3R,5S)-3,5-dimethylpiperazin-1-yl]-N-{8-fluoro-2-methylimidazo[1,2-a]pyridin-6-yl}-2-methylquinoline-8-carboxamide]
AC50 [1]: 100 to 1000 nM

IC50 [1]: < 100 nM
IC50 [2]: 1000 to 10000 nM
SMILES: Cc1cn2cc(NC(=O)c3ccc(N4CCNC(C)(C)C4)c4nccnc34)cc(F)c2n1 [Compound 220, 8-(3,3-dimethylpiperazin-1-yl)-N-{8-fluoro-2-methylimidazo[1,2-a]pyridin-6-yl}quinoxaline-5-carboxamide]
AC50 [1]: < 100 nM
